Counter-ions that a name gives are not always drawn.

Usually EC50 stands for the concentration needed to bring the measured effect to its halfway point. The low end stands for an effect from little substance, the high end for a need for much substance.

The target in the assay is T1, hNPRA (Homo sapiens, UniProt P16066).
T1 construct: expressed in transfected cells
T1 sequence (P16066 33-1061): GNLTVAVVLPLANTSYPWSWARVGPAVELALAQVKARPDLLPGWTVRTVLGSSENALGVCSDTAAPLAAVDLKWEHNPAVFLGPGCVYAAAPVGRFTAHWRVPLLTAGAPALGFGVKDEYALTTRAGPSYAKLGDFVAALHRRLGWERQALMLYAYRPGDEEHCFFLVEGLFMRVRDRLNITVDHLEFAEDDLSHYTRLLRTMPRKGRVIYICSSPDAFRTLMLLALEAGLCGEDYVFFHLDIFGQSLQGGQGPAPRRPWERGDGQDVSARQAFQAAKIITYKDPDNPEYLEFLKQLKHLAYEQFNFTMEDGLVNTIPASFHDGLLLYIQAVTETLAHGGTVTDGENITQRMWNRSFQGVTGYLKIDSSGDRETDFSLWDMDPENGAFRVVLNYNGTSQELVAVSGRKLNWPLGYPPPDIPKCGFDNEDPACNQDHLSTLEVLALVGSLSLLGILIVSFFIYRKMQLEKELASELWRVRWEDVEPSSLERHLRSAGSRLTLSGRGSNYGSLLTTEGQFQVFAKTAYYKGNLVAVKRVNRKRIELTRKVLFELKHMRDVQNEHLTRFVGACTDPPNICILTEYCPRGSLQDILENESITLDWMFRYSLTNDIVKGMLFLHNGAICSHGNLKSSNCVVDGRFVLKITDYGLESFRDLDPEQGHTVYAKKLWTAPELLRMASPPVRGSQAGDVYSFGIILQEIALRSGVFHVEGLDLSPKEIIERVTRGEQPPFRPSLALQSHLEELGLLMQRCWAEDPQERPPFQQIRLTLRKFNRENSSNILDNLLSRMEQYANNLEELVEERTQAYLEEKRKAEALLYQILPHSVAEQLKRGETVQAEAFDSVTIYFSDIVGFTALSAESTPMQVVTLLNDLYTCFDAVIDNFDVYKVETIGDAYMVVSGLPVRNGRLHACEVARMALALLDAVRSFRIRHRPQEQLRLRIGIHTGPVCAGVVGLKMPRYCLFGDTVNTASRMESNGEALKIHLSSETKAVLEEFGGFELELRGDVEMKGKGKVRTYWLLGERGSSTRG
Put plainly: NPRA Functional Cell Assay (cGMP HTRF, NPRA HEK JumpIn stable cells). It is filed as cell-based. The note with it: cGMP production, 1 hour at 37° C., 10-point dose response. In outline: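 cGMP HTRF read-out after 1 hour compound treatment at 37° C. of human NPRA-expressing HEK JumpIn cells, 1500 cells/well, in buffer with phosphodiesterase inhibitors IBMX and RO20 (100 uM each). Signal converted to [cGMP] by calibration curve; EC50s fitted by 4-parameter logistic; 50 nM h-ANP as positive response.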
Background: Time-resolved FRET reads energy transfer from a long-lived donor to a nearby acceptor.
Compound `CC(C)(C)[C@H]1CCc2nc3sc(C(=O)N[C@H](CCN4CCC(O)CC4)c4ccc(N5CCOC5=O)nc4)nc3cc2C1` (racemic) [Example 186, rac-(7S)-7-tert-butyl-N-[rac-(1R)-3-(4-hydroxy-1-piperidyl)-1-[6-(2-oxooxazolidin-3-yl)-3-pyridyl]propyl]-5,6,7,8-tetrahydrothiazolo[5,4-b]quinoline-2-carboxamide] displayed an EC50 of 350 nM. This counts as sub-micromolar. In turn, `Cc1nn(-c2ccc([C@@H](CCN3CCC(O)CC3)NC(=O)c3nc4cc5c(nc4s3)CC[C@H](C(C)(C)C)C5)cn2)c(C)c1O` (racemic) [Example 187, ammonium; 3,5-dimethyl-1-[5-[rac-(1R)-3-(4-hydroxy-1-piperidyl)-1-[[rac-(7S)-7-tert-butyl-5,6,7,8-tetrahydrothiazolo[5,4-b]quinoline-2-carbonyl]amino]propyl]-2-pyridyl]pyrazol-4-olate] returned an EC50 of 641 nM. `CC(C)(C)C1CCc2nc3sc(C(=O)NC(CCN4CCC(O)CC4)c4ccc(N5CCC(O)C5=O)nc4)nc3cc2C1` (racemic) [Example 188, rac-(7S)-7-tert-butyl-N-[rac-(1R)-1-[6-(3-hdyroxy-2-oxo-pyrrolidin-1-yl)-3-pyridyl]-3-(4-hydroxy-1-piperidyl)propyl]-5,6,7,8-tetrahydrothiazolo[5,4-b]quinoline-2-carboxamide] displayed an EC50 of 938 nM.

For the compound `CC(C)(C)[C@H]1CCc2nc3sc(C(=O)N[C@H](CCN4CCC(O)CC4)c4ccc(N5CCC(O)CC5)nc4)nc3cc2C1` (racemic) [Example 189, rac-(7S)-7-tert-butyl-N-[rac-(1R)-3-(4-hydroxy-1-piperidyl)-1-[6-(4-hydroxy-1-piperidyl)-3-pyridyl]propyl]-5,6,7,8-tetrahydrothiazolo[5,4-b]quinoline-2-carboxamide], the EC50 was 1380 nM. As for `CC(C)(C)[C@H]1CCc2nc3sc(C(=O)N[C@H](CCN4CCC(O)CC4)c4ccc(N5CCC(O)C5)nc4)nc3cc2C1` (mixture of isomers) [Example 190, rac-(7S)-7-tert-butyl-N-[rac-(1R)-3-(4-hydroxy-1-piperidyl)-1-[6-(3-hydroxypyrrolidin-1-yl)-3-pyridyl]propyl]-5,6,7,8-tetrahydrothiazolo[5,4-b]quinoline-2-carboxamide], the figure is 1910 nM. Compound `Cc1n[nH]c(C)c1Oc1ccc([C@@H](CCN2CCC(O)CC2)NC(=O)c2nc3cc4c(nc3s2)CC[C@H](C(C)(C)C)C4)cn1` (racemic) [Example 191, rac-(7S)-7-tert-butyl-N-[rac-(1R)-1-[6-[(3,5-dimethyl-1H-pyrazol-4-yl)oxy]-3-pyridyl]-3-(4-hydroxy-1-piperidyl)propyl]-5,6,7,8-tetrahydrothiazolo[5,4-b]quinoline-2-carboxamide] showed an EC50 of 632 nM. Then `CC(C)(C)[C@H]1CCc2nc3sc(C(=O)N[C@H](CCN4CCC(O)CC4)c4ccc(OCCO)nc4)nc3cc2C1` (racemic) [Example 192, rac-(7S)-7-tert-butyl-N-[rac-(1R)-1-[6-(2-hydroxyethoxy)-3-pyridyl]-3-(4-hydroxy-1-piperidyl)propyl]-5,6,7,8-tetrahydrothiazolo[5,4-b]quinoline-2-carboxamide], with 665 nM; and `CC(C)(C)[C@H]1CCc2nc3sc(C(=O)N[C@H](CCN4CCC(O)CC4)c4ccc(OCC(N)=O)nc4)nc3cc2C1` (racemic) [Example 193, rac-(7S)-7-tert-butyl-N-[rac-(1R)-1-[6-(2-amino-2-oxo-ethoxy)-3-pyridyl]-3-(4-hydroxy-1-piperidyl)propyl]-5,6,7,8-tetrahydrothiazolo[5,4-b]quinoline-2-carboxamide], with 787 nM; and `CC(C)(C)[C@H]1CCc2nc3sc(C(=O)N[C@H](CCN4CCC(O)CC4)c4ccc(Oc5ccc(O)cc5)nc4)nc3cc2C1` (racemic) [Example 194, ammonium; 4-[[5-[rac-(1R)-3-(4-hydroxy-1-piperidyl)-1-[[rac-(7S)-7-tert-butyl-5,6,7,8-tetrahydrothiazolo[5,4-b]quinoline-2-carbonyl]amino]propyl]-2-pyridyl]oxy]phenolate], with 1500 nM. As for `CC(C)(C)[C@H]1CCc2nc3sc(C(=O)N[C@H](CCN4CCC(O)CC4)c4ccc(-c5ccc(=O)[nH]c5)nc4)nc3cc2C1` (racemic) [Example 195, rac-(7S)-7-tert-butyl-N-[rac-(1R)-3-(4-hydroxy-1-piperidyl)-1-[6-(6-oxo-1H-pyridin-3-yl)-3-pyridyl]propyl]-5,6,7,8-tetrahydrothiazolo[5,4-b]quinoline-2-carboxamide], the figure is 126 nM. Then `CC(C)(C)[C@H]1CCc2nc3sc(C(=O)N[C@H](CCN4CCC(O)CC4)c4ccc(-c5cn[nH]c5)nc4)nc3cc2C1` (racemic) [Example 196, rac-(7S)-7-tert-butyl-N-[rac-(1R)-3-(4-hydroxy-1-piperidyl)-1-[6-(1H-pyrazol-4-yl)-3-pyridyl]propyl]-5,6,7,8-tetrahydrothiazolo[5,4-b]quinoline-2-carboxamide], with 303 nM; and `CC(C)(C)[C@H]1CCc2nc3sc(C(=O)N[C@H](CCN4CCC(O)CC4)c4ccc(-c5csc(C(=O)O)c5)nc4)nc3cc2C1` (racemic) [Example 197, 4-[5-[rac-(1R)-3-(4-hydroxypiperidin-1-ium-1-yl)-1-[[rac-(7S)-7-tert-butyl-5,6,7,8-tetrahydrothiazolo[5,4-b]quinoline-2-carbonyl]amino]propyl]-2-pyridyl]thiophene-2-carboxylic acid; 2,2,2-trifluoroacetate], with 560 nM. `CC(C)(C)[C@H]1CCc2nc3sc(C(=O)N[C@H](CCN4CCC(N)CC4)c4ccc(-c5cnc(O)c(F)c5)cc4)nc3cc2C1` (racemic) [Example 198, [1-[rac-(3R)-3-[4-(5-fluoro-6-hydroxy-3-pyridyl)phenyl]-3-[[rac-(7S)-7-tert-butyl-5,6,7,8-tetrahydrothiazolo[5,4-b]quinoline-2-carbonyl]amino]propyl]-4-piperidyl]ammonium; formate] registered an EC50 of 220 nM. Regarding `CC(C)(C)[C@H]1CCc2nc3sc(C(=O)N[C@H](CCN4CCC(O)(CN)CC4)c4ccc(-c5cnc(O)c(F)c5)cc4)nc3cc2C1` (racemic) [Example 199, [4-hydroxy-1-[rac-(3R)-3-[4-(5-fluoro-6-hydroxy-3-pyridyl)phenyl]-3-[[rac-(7S)-7-tert-butyl-5,6,7,8-tetrahydrothiazolo[5,4-b]quinoline-2-carbonyl]amino]propyl]-4-piperidyl]methylammonium; formate], the EC50 turned out to be 222 nM.

As for `CN(C)CC1(O)CCN(CC[C@@H](NC(=O)c2nc3cc4c(nc3s2)CC[C@H](C(C)(C)C)C4)c2ccc(-c3cnc(O)c(F)c3)cc2)CC1` (racemic) [Example 200, rac-(7S)-7-tert-butyl-N-[rac-(1R)-3-[4-[(dimethylamino)methyl]-4-hydroxy-piperidin-1-ium-1-yl]-1-[4-(5-fluoro-6-hydroxy-3-pyridyl)phenyl]propyl]-5,6,7,8-tetrahydrothiazolo[5,4-b]quinoline-2-carboxamide; formate], the EC50 amounted to 243 nM.

(Values after patent US12440496B2, “Natriuretic peptide receptor a agonists useful for the treatment of cardiometabolic diseases, kidney disease and diabetes” (Merck Sharp & Dohme LLC, priority 2019, dated 2025).)
